Laboratory results as given in patent publication US20260315486A1, “ALECTINIB FOR THE TREATMENT OF ALK FUSION-POSITIVE SOLID OR CNS TUMOURS” (Hoffmann-La Roche Inc., priority 2023, published 2026).

What was measured:
[1] = stated as known; may result in bradycardia; cited from earlier work
[2] = Peters et al., 2017; cited from earlier work
[3] = test system: FGFR2; details: stated without data; cited from earlier work
[4] = test system: ALK fusion-positive solid or CNS tumours; experiment: Paediatric clinical trial, Part 1 safety run-in: investigator-reported tumour response (RANO / RECIST v1.1 / INRC); format: in vivo, human (paediatric patients)
Excerpt: The study consists of three parts, all enrolling paediatric participants with solid or CNS tumours with known ALK fusion for whom prior treatment has proven to be ineffective or for whom there is no satisfactory treatment available: • Part 1, dose confirmation and safety run-in: to identify the RP2D for paediatric participants, achieving the exposure observed in the adult population • This portion will consist of a safety run-in with a minimum of 6 participants (up to approximately 18 participants) to assess the safety, tolerability, and pharmacokinetics of alectinib in the paediatric population. The initial paediatric dose will be assessed and refined by modelling and simulation prospectively. • Part 2, initial expansion: to evaluate the safety and preliminary efficacy of alectinib in newly enrolled paediatric participants treated at the paediatric RP2D. A minimum of 10 participants will be enrolled in this part of the study. If 4 or more participants achieve an objective response to alectinib (as described in Part 2, below), additional expansion will be performed. • Part 3, additional expansion: This portion of the study will enroll approximately 14 additional paediatric participants. An integrated efficacy analysis accounting for every participant treated at paediatric RP2D across all cohorts will be used for the confirmation of the efficacy of alectinib.
(§1) Alectinib will be administered orally or via feeding tube to participants BID on Days 1-28 of each 28-day cycle. All participants will be closely monitored for adverse events (regardless of relationship to study drug) throughout the study and for at least 28 days after the final dose of study treatment or until initiation of a new anti-cancer therapy, whichever occurs first.
Response will be assessed by the investigator on the basis of physical examinations, computed tomography (CT) scans, and other modalities where relevant (e.g., magnetic resonance imaging [MRI] scans, brain scans, bone marrow examinations, fluorodeoxyglucose-positron emission tomography (FDG-PET), metaiodobenzoguanidine [MIBG] scan), according to RANO, INRC, and RECIST v1.1 (see below). Tumour assessment imaging should include all areas of known disease.
An objective response should be confirmed by repeat assessments ≥4 weeks after initial documentation. The same radiographic procedure used to assess disease sites at screening should be used throughout the study (e.g., the same contrast protocol for CT scans). To the extent that is feasible, assessments should be performed by the same evaluator to ensure internal consistency across visits.
Selected sections from the Response Evaluation Criteria in Solid Tumors (RECIST), Version 1.1 (Eisenhauer et al., 2009, Eur J Cancer, 45:228-47) are presented below, with slight modifications.
Antitumor activity will be assessed based on clinical and radiographic evidence as described by the INRC (Park et al. 2017, Clin Oncol; 35:2580-7).
Antitumor activity will be assessed based on clinical and radiographic evidence as described by the RANO criteria.
The primary efficacy endpoint is ORR in participants treated at the paediatric RP2D, as assessed by BICR, defined as the proportion of participants with an objective response. The objective response for individual participants will be assessed per RECIST v1.1 for participants with extracranial tumours, and per RANO for participants with primary CNS tumours, and INRC for neuroblastoma. An objective response is defined as a CR or PR per disease-specific response criteria, confirmed ≥4 weeks apart in two separate tumour assessments. Participants not meeting these criteria (including participants without a postbaseline tumour assessment) will be considered non-responders.
Patients with ALK fusion-positive solid or CNS tumours for whom prior treatment has proven to be ineffective or for whom there is no satisfactory treatment available, less than 18 years of age, were eligible. […]

[5] = Paediatric clinical trial, Part 1 safety run-in: safety and tolerability (dose-limiting toxicities, adverse events); format: in vivo, human (paediatric patients)
Excerpt: as §1
Owing to the limitations of predicting exposure in children who are <2 years old, before enrolment of participants <2 years old, the investigator must discuss a participant's case with the Medical Monitor until at least 3 participants who are ≥2-6 years old have completed one cycle of treatment. The first participant enrolled must complete at least 8 days of treatment without a DLT before subsequent participants can enroll. If a dose adjustment is required because of toxicity, the same approach will be taken for the first participant at the new dose level. Participants will be closely monitored for adverse events during a DLT assessment window of one cycle (28 days). Participants who discontinue from the study prior to completing the DLT assessment window or who complete <80% (i.e., […]) of the prescribed therapy for that cycle for reasons other than a DLT will be considered non-evaluable. DLT non-evaluable participants will be replaced, unless the Medical Monitor determines that replacement is not necessary for a dose adjustment decision. The Medical Monitor will review all participants who take prohibited therapies, foods, or supplements or who receive supportive care during the DLT assessment window that would confound the evaluation of DLTs (not including supportive care described below as part of the DLT definition) to determine DLT evaluability and whether such participants will be replaced.
During the safety run-in phase, any one of the following events will be considered a DLT if it occurs during the DLT assessment window and is assessed by the investigator to be related or possibly related to alectinib (rules for attributing causality are defined below in ‘Adverse events’). Adverse events identified as DLTs, as defined below, must be reported to the Sponsor within 24 hours.
The following will be considered as a DLT: • Any treatment-related death • Grade 4 neutropenia (ANC<500 cells/mm^3 which is equivalent to ANC<0.5×10^9/L) lasting at least 7 days • Febrile neutropenia: ANC<1000 cells/mm^3 (which is equivalent to ANC<1×10^9/L) with a single temperature of >38.3° C. (101° F.) or a sustained temperature of ≥38° C. (100.4° F.) for more than 1 hour • Grade 4 anaemia • Grade 4 thrombocytopenia (i.e., platelet count <25.0×10^9/L) or Grade 3 thrombocytopenia associated with clinically significant bleeding or any thrombocytopenia requiring platelet transfusion. • Of note, the post-surgical platelet threshold for platelets transfusion could be higher. […]

[6] = 7 patients evaluable for efficacy (ALCL patient excluded), investigator, data cut off Jun. 12, 2023
[7] = 7 patients evaluable for efficacy, investigator
[8] = 8 patients, Part 1 safety run-in

CCc1cc2c(cc1N1CCC(N3CCOCC3)CC1)C(C)(C)c1[nH]c3cc(C#N)ccc3c1C2=O [Alectinib, 9-ethyl-6,6-dimethyl-8-(4-morpholin-4-yl-piperidin-1-yl)-11-oxo-6,11-dihydro-5H-benzo[b]carbazole-3-carbonitrile]
Negative chronotropic effect [1]: known negative chronotropic effect of alectinib that may result in bradycardia | CNS penetration [2]: CNS penetrant | Inhibitory activity on FGFR2 [3]: no inhibitory activity | Best Overall Response: responders (CR + PR), number of patients [4, 6]: 4 patients | Best Overall Response: responders (CR + PR), percent of patients [4, 6]: 57.1% | Best Overall Response: CR, number of patients [4, 7]: 1 CR | Best Overall Response: PR, number of patients [4, 7]: 3 PR | Best Overall Response: Stable Disease, number of patients [4, 7]: 2 patients | Best Overall Response: Stable Disease, percent of patients [4, 7]: 28.6% | Best Overall Response (Investigator): Complete Response (CR), number of patients ([4]; N = 8, all enrolled patients): 1 | Best Overall Response (Investigator): Partial Response (PR), number of patients ([4]; N = 8, all enrolled patients): 4 | Best Overall Response (Investigator): Progressive Disease (PD), number of patients ([4]; N = 8, all enrolled patients): 0 | Best Overall Response (Investigator): Stable Disease (SD), number of patients ([4]; N = 8, all enrolled patients): 2 | Best Overall Response (Investigator): Total Responders, number of patients ([4]; N = 8, all enrolled patients): 5 | Best Overall Response (Investigator, %): Complete Response (CR) ([4]; N = 8, all enrolled patients): 12.5% | Best Overall Response (Investigator, %): Partial Response (PR) ([4]; N = 8, all enrolled patients): 50.0% | Best Overall Response (Investigator, %): Progressive Disease (PD) ([4]; N = 8, all enrolled patients): 0.0% | Best Overall Response (Investigator, %): Total Responders ([4]; N = 8, all enrolled patients): 62.5% | Response, in words ([4]; conclusion, paediatric patients with ALK-fusion positive solid or CNS tumours): majority of patients experiencing a response | AE-related deaths [5, 8]: no AE-related deaths | Dose Limiting Toxicities [5, 8]: No Dose Limiting Toxicities were reported | New safety signals [5, 8]: no new safety signals detected | Patients with Grade ≥3 related AE [5, 8]: 2 patients | Patients with a related Adverse Event (AE) [5, 8]: Seven | Tolerability ([5]; paediatric patients with ALK-fusion positive solid or CNS tumours): generally well tolerated
